Experimental data reported in ChEMBL document CHEMBL4354856, “Discovery of 4,6-O-Thenylidene-β-d-glucopyranoside-(2″-acetamido, 3″-acetyl-di-S-5-fluorobenzothizole/5-fluorobenzoxazole)-4'-demethylepipodophyllotoxin as Potential Less Toxic Antitumor Candidate Drugs by Reducing DNA Damage and Less Inhibition of PI3K” (J Med Chem, 2020).
pIC50: −log10 of the molar value. Calls of active or inactive are those of the source. The rule behind the calls is not given here.

How the values were obtained:
[1] = Cytotoxicity against human H8 cells assessed as inhibition of cell proliferation measured after 48 hrs by MTT assay; format: cell-based
HepG2 [2] = assay: Anticancer activity against human HepG2 cells assessed as inhibition of cell proliferation measured after 48 hrs by MTT assay; format: functional, cell-based; conditions: HepG2, 48 h
L02 [3] = assay: Cytotoxicity against human HL7702 cells assessed as inhibition of cell proliferation measured after 48 hrs by MTT assay; format: cell-based; conditions: L02, 48 h
MRC5 [4] = assay: Cytotoxicity against human MRC5 cells assessed as inhibition of cell proliferation measured after 48 hrs by MTT assay; format: cell-based; conditions: MRC5, 48 h
HMEC [5] = assay: Cytotoxicity against human HMEC cells assessed as inhibition of cell proliferation measured after 48 hrs by MTT assay; format: cell-based
MCF7 = assay: Anticancer activity against human MCF7 cells assessed as inhibition of cell proliferation measured after 48 hrs by MTT assay; format: functional, cell-based; conditions: MCF7, 48 h
A549 = assay: Anticancer activity against human A549 cells assessed as inhibition of cell proliferation measured after 48 hrs by MTT assay; format: functional, cell-based; conditions: A549, 48 h
HeLa = assay: Anticancer activity against human HeLa cells assessed as inhibition of cell proliferation measured after 48 hrs by MTT assay; format: functional, cell-based
L02 [6] = assay: Induction of apoptosis in human HL7702 cells assessed as apoptotic cells at 50 uM measured after 42 hrs by Annexin-V/propidium iodide staining based flow cytometry analysis relative to control; format: cell-based; conditions: l02, 42 h
HepG2 [7] = assay: Antitumor activity against human HepG2 xenografted in BALB/c nude mouse assessed as tumor growth inhibition at 30 mg/kg, ip administered for 20 days and measured after 20 days by electronic caliper method relative to control; format: functional; conditions: 480 h, read-out: TGI
HepG2 [8] = assay: Antitumor activity against human HepG2 xenografted in BALB/c nude mouse assessed as tumor volume at 30 mg/kg, ip administered for 20 days and measured after 20 days by electronic caliper method (reference value: 960.20 +/- 32.10 mm3); format: functional
[9] = molecular target: DNA topoisomerase 2-alpha (Homo sapiens) (UniProt P11388); assay: Inhibition of human topoisomerase-2alpha mediated decatenation using kinetoplast DNA as substrate after 30 mins in presence of ATP by ethidium bromide staining-based UV imaging analysis
HepG2 [10] = assay: Induction of apoptosis in human HepG2 cells assessed as apoptotic cells at 10 uM measured after 42 hrs by Annexin-V/propidium iodide staining based flow cytometry analysis relative to control; format: functional
L02 [11] = assay: Cell cycle arrest in human HL7702 cells assessed as accumulation at G2/M phase at 5 uM after 30 hrs by propidium staining based flow cytometry analysis relative to control; conditions: l02, 30 h
HepG2 [12] = assay: Induction of DNA damage in human HepG2 cells assessed as increase in H2AX phosphorylation at 20 uM after 24 hrs by Alexa Fluor 488 staining based fluorescence assay; format: functional, cell-based
L02 [13] = assay: Induction of apoptosis in human HL7702 cells assessed as increase in PARP cleavage at 25 uM after 30 hrs by Western blot analysis; format: cell-based; conditions: l02, 30 h
[14] = molecular target: DNA topoisomerase 2-alpha (Homo sapiens) (UniProt P11388); assay: Inhibition of human topoisomerase-2alpha mediated decatenation at 50 uM using kinetoplast DNA as substrate after 30 mins in presence of ATP by ethidium bromide staining-based UV imaging analysis relative to control
Homo sapiens = organism: Homo sapiens; assay: Induction of PI3K/AKT phosphorylation in human HL7702 cells at 25 uM after 30 hrs by Western blot analysis; format: cell-based
HepG2 [15] = assay: Cell cycle arrest in human HepG2 cells assessed as accumulation at G2/M phase at 15 uM after 36 hrs by propidium staining based flow cytometry analysis relative to control; format: functional
L02 [16] = assay: Induction of DNA damage in human HL7702 cells assessed as effect on gamma-H2AX phosphorylation at 20 uM after 24 hrs by Alexa Fluor 488 staining based fluorescence assay; format: cell-based; conditions: l02, 24 h
L02 [17] = assay: Genotoxicity in human HL7702 cells assessed as induction of DNA damage by measuring tail DNA at 50 uM after 24 hrs by alkaline comet assay (reference value: 3 +/- 1.1 %); format: toxicity, cell-based; conditions: l02, 24 h
[18] = Therapeutic index, ratio of LD50 for acute toxicity in ip dosed C57BL6 mouse assessed as mouse survival administered as single dose for 3 days and monitored for 20 days by Bliss method to ED50 for antitumor activity against human HepG2 xenografted in ip dosed BALB/c nude mouse administered for 20 days and measured after 20 days by electronic caliper method; format: organism-based; conditions: in vivo, read-out: TI
MRC5 [19] = assay: Cytotoxicity against human MRC5 cells assessed as inhibition of cell proliferation measured after 48 hrs by MTT assay relative to teniposide; format: cell-based; conditions: mrc5, 48 h
[20] = Acute toxicity in ip dosed C57BL6 mouse assessed as mouse survival administered as single dose for 3 days and monitored for 20 days by Bliss method; format: organism-based; conditions: in vivo
HepG2 [21] = assay: Induction of apoptosis in human HepG2 cells assessed as apoptotic cells at 5 to 15 uM measured after 36 hrs by Annexin-V/propidium iodide staining based flow cytometry analysis relative to control; format: functional
DNA topoisomerase II [22] = molecular target: T1, DNA topoisomerase II (Homo sapiens, UniProt P11388+Q02880); assay: Poison activity at topoisomerase-2 in human HepG2 cell lysate assessed as topoisomerase-2 band depletion after 3 hrs by Western blot analysis; format: subcellular
HepG2 [23] = assay: Antitumor activity against human HepG2 xenografted in ip dosed BALB/c nude mouse administered for 20 days and measured after 20 days by electronic caliper method; format: functional; conditions: 480 h
DNA topoisomerase II [24] = molecular target: T1, DNA topoisomerase II; assay: Poison activity at topoisomerase-2 in human HL7702 cell lysate assessed as reduction in topoisomerase-2 band depletion at 50 uM after 3 hrs by Western blot analysis; format: ADME, subcellular
L02 [25] = assay: Genotoxicity in human HL7702 cells assessed as induction of DNA damage at 50 uM after 24 hrs in combination of teniposide by alkaline comet assay; format: toxicity, cell-based; conditions: l02, 24 h
[26] = molecular target: DNA topoisomerase 2-alpha (Homo sapiens) (UniProt P11388); assay: Inhibition of human topoisomerase-2alpha mediated decatenation at 25 uM using kinetoplast DNA as substrate after 30 mins in presence of ATP by ethidium bromide staining-based UV imaging analysis
[27] = Acute toxicity in C57BL6 mouse assessed as effect on body weight at 100 mg/kg, ip administered for 20 days; format: organism-based; conditions: in vivo, 480 h
HMEC [28] = assay: Cytotoxicity against human HMEC cells assessed as inhibition of cell proliferation measured after 48 hrs by MTT assay relative to teniposide; format: cell-based
L02 [29] = assay: Cytotoxicity against human HL7702 cells assessed as inhibition of cell proliferation measured after 48 hrs by MTT assay relative to teniposide; format: cell-based; conditions: l02, 48 h
L02 [30] = assay: Induction of apoptosis in human HL7702 cells assessed as increase in BAX level at 25 uM after 30 hrs by Western blot analysis; format: cell-based; conditions: l02, 30 h
HepG2 [31] = assay: Cell cycle arrest in human HepG2 cells assessed as accumulation at G2/M phase at 5 uM after 24 hrs by propidium staining based flow cytometry analysis; format: functional

Sequence of DNA topoisomerase 2-alpha (Homo sapiens) (P11388 whole entry): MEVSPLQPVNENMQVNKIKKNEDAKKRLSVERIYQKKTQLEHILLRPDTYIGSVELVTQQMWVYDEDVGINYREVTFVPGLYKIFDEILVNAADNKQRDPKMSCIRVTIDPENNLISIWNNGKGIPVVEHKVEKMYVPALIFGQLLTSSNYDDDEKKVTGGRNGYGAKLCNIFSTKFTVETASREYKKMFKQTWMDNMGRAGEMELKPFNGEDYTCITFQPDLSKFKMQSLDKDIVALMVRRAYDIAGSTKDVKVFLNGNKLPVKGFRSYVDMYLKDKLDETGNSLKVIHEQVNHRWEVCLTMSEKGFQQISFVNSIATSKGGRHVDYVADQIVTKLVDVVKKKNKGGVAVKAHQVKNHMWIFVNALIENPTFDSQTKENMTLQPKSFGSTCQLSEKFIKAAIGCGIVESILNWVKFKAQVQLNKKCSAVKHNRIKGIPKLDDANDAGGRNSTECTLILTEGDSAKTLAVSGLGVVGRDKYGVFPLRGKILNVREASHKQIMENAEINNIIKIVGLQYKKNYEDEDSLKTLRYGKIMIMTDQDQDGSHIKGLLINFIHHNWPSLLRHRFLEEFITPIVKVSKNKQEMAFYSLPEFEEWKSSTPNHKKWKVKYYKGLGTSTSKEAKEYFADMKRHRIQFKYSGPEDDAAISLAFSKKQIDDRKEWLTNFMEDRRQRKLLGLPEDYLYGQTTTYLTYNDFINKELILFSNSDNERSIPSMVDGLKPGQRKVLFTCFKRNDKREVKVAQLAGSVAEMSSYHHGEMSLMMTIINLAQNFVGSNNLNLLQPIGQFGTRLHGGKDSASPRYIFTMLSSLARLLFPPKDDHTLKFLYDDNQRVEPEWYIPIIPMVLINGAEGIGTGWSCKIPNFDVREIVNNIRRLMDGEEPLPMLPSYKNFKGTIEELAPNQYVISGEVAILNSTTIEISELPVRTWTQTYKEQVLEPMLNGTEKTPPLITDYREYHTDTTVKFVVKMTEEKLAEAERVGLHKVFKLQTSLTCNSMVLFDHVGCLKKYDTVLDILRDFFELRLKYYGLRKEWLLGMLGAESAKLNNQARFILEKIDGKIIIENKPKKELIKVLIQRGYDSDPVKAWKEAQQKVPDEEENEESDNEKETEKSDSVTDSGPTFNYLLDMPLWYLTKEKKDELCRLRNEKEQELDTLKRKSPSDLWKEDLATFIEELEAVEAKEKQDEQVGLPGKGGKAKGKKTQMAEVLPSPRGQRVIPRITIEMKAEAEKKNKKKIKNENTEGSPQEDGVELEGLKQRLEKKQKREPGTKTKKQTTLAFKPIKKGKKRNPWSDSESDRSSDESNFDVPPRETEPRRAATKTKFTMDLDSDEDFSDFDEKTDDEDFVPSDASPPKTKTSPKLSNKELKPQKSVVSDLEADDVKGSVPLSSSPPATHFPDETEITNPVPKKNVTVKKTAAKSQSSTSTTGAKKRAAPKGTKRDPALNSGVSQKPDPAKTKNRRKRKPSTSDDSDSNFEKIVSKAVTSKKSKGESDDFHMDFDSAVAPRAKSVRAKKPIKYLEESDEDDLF

COc1cc([C@@H]2c3cc4c(cc3[C@@H](O[C@@H]3O[C@@H]5CO[C@@H](c6cccs6)O[C@H]5[C@H](OC(=O)CSc5nc6cc(F)ccc6o5)[C@H]3O)[C@H]3COC(=O)[C@H]23)OCO4)cc(OC)c1O
pIC50 [1]: 4.80
pIC50 (HepG2 [2]): 5.68
pIC50 (L02 [3]): 4.79
pIC50 (MRC5 [4]): 4.83
pIC50 (HMEC [5]): 4.85
pIC50 (MCF7): 5.34
pIC50 (A549): 5.32
pIC50 (HeLa): 5.70

COc1cc([C@@H]2c3cc4c(cc3[C@@H](O[C@@H]3O[C@@H]5CO[C@@H](c6cccs6)O[C@H]5[C@H](O)[C@H]3OC(=O)CSc3nc5cc(F)ccc5s3)[C@H]3COC(=O)[C@H]23)OCO4)cc(OC)c1O
pIC50 [1]: 4.65
pIC50 (HepG2 [2]): 5.70
pIC50 (L02 [3]): 4.73
pIC50 (MRC5 [4]): 4.91
pIC50 (HMEC [5]): 4.87
pIC50 (MCF7): 5.41
pIC50 (A549): 5.96
pIC50 (HeLa): 5.82

COc1cc([C@@H]2c3cc4c(cc3[C@@H](O[C@@H]3O[C@@H]5CO[C@@H](c6cccs6)O[C@H]5[C@H](OC(=O)CSc5nc6cc(F)ccc6s5)[C@H]3O)[C@H]3COC(=O)[C@H]23)OCO4)cc(OC)c1O
pIC50 [1]: 4.76
pIC50 (HepG2 [2]): 5.57
pIC50 (L02 [3]): 4.79
pIC50 (MRC5 [4]): 4.84
pIC50 (HMEC [5]): 4.84
pIC50 (MCF7): 5.25
pIC50 (A549): 5.46
pIC50 (HeLa): 5.60

COc1cc([C@@H]2c3cc4c(cc3[C@@H](O[C@@H]3O[C@@H]5CO[C@@H](c6cccs6)O[C@H]5[C@H](O)[C@H]3NC(=O)CSc3nc5cc(F)ccc5o3)[C@H]3COC(=O)[C@H]23)OCO4)cc(OC)c1O
pIC50 [1]: 3.83
pIC50 (HepG2 [2]): 3.92
pIC50 (L02 [3]): 3.84
pIC50 (MRC5 [4]): 3.88
pIC50 (HMEC [5]): 3.81
pIC50 (MCF7): 3.80
pIC50 (A549): 3.91
pIC50 (HeLa): 3.80

COc1cc([C@@H]2c3cc4c(cc3[C@@H](O[C@@H]3O[C@@H]5CO[C@@H](c6cccs6)O[C@H]5[C@H](O)[C@H]3OC(=O)CSc3nc5cc(F)ccc5o3)[C@H]3COC(=O)[C@H]23)OCO4)cc(OC)c1O
pIC50 [1]: 4.67
pIC50 (HepG2 [2]): 5.77
pIC50 (L02 [3]): 4.76
pIC50 (MRC5 [4]): 4.80
pIC50 (HMEC [5]): 4.84
pIC50 (MCF7): 5.40
pIC50 (A549): 5.57
pIC50 (HeLa): 6.00

COc1cc([C@@H]2c3cc4c(cc3[C@@H](O[C@@H]3O[C@@H]5CO[C@@H](c6cccs6)O[C@H]5[C@H](OC(=O)CSc5nc6cc(F)ccc6o5)[C@H]3OC(=O)CSc3nc5cc(F)ccc5o3)[C@H]3COC(=O)[C@H]23)OCO4)cc(OC)c1O
pIC50 [1]: 4.69
pIC50 (HepG2 [2]): 4.81
pIC50 (L02 [3]): 4.69
pIC50 (MRC5 [4]): 4.60
pIC50 (HMEC [5]): 4.63
pIC50 (MCF7): 4.52
pIC50 (A549): 4.94
pIC50 (HeLa): 4.30

COc1cc([C@@H]2c3cc4c(cc3[C@@H](O[C@@H]3O[C@@H]5CO[C@@H](c6cccs6)O[C@H]5[C@H](O)[C@H]3NC(=O)CSc3nc5cc(F)ccc5s3)[C@H]3COC(=O)[C@H]23)OCO4)cc(OC)c1O
pIC50 [1]: 3.85
pIC50 (HepG2 [2]): 3.92
pIC50 (L02 [3]): 3.81
pIC50 (MRC5 [4]): 3.91
pIC50 (HMEC [5]): 3.80
pIC50 (MCF7): 3.85
pIC50 (A549): 3.91
pIC50 (HeLa): 3.87

COc1cc([C@@H]2c3cc4c(cc3[C@@H](O[C@@H]3O[C@@H]5CO[C@@H](c6cccs6)O[C@H]5[C@H](OC(=O)CSc5nc6cc(F)ccc6s5)[C@H]3OC(=O)CSc3nc5cc(F)ccc5s3)[C@H]3COC(=O)[C@H]23)OCO4)cc(OC)c1O
pIC50 [1]: 4.69
pIC50 (HepG2 [2]): 4.42
pIC50 (L02 [3]): 4.66
pIC50 (MRC5 [4]): 4.59
pIC50 (HMEC [5]): 4.61
pIC50 (MCF7): 3.82
pIC50 (A549): 3.93
pIC50 (HeLa): 3.76

COc1cc([C@@H]2c3cc4c(cc3[C@@H](O[C@@H]3O[C@@H]5CO[C@@H](c6cccs6)O[C@H]5[C@H](OC(=O)CSc5nc6cc(F)ccc6o5)[C@H]3NC(=O)CSc3nc5cc(F)ccc5o3)[C@H]3COC(=O)[C@H]23)OCO4)cc(OC)c1O
Activity (L02 [6]): 30%
inhibition in vivo at 30 mg/kg (HepG2 [7]): 62%
Activity (HepG2 [8]): 163.25 mm3
inhibition [9]: Dose-dependent effect
Activity (HepG2 [10]): 55%
pIC50 [1]: 3.91
Activity (L02 [11]): 40%
Activity (HepG2 [12]): Active
pIC50 (HepG2 [2]): 4.95
Activity (L02 [13]): Non-Toxic
pIC50 (L02 [3]): 3.91
pIC50 (MRC5 [4]): 3.91
inhibition [14]: 100%
Activity (Homo sapiens): Active
Activity (HepG2 [15]): 76%
Activity (L02 [16]): Toxic
Activity (L02 [17]): 8.4%
selectivity ratio at 20 days [18]: 4.82
fold change (FC) (MRC5 [19]): 10
pIC50 (HMEC [5]): 3.90
LD50 at 480 h [20]: 168 mg/kg
Activity (HepG2 [21]): 30 - 55%
IC50 (DNA topoisomerase II [22]): 124.2 µM
ED50 (HepG2 [23]): 34.7 mg/kg
Activity (DNA topoisomerase II [24]): Not Active
Activity (L02 [25]): Toxic
inhibition [26]: Active
Activity [27]: Non-Toxic
fold change (FC) (HMEC [28]): 10
pIC50 (MCF7): 4.91
pIC50 (A549): 4.83
fold change (FC) (L02 [29]): 10
pIC50 (HeLa): 3.81
Activity (L02 [30]): Non-Toxic
Activity (HepG2 [31]): inactive
